Experimental data taken from patent publication US20180201647A1, “Peptoid” (The University of Durham, priority 2015, published 2018).
Read-outs that look alike come from different tables or passages of the source. One block for each compound: values may come before it. *1 amine or outer side, *2 acyl side, *3 side chain or, on linkers, in order; H or OH if unused. Where a SMILES comes first, the peptide text is derived from it. [ ]: non-standard residue; d: D form. Gly(N-2-aminoethyl) = NCCNCC(=O)O; X1 = N=C(N)NCCN(CC(=O)[*:2])[*:1]; Nspe = C[C@H](NCC(=O)O)c1ccccc1; NhArg = N=C(N)NCCCCNCC(=O)O; Nlys = NCCCCNCC(=O)O

Columns and labels:
Assay type in all cases: cell-based
[1] = tested on: T. cruzi Tulahuen strain C2C4; test: microbe, parasite or virus in culture; details: for IC50: in L-6 cells, 96 h
Method: Rat skeletal myoblasts (L-6 cells) were seeded in 96-well microtitre plates at 2000 cells/well in 100 μL RPMI 1640 medium with 10% FBS and 2 mM 1-glutamine. After 24 h the medium was removed and replaced by 100 μl per well containing 5000 trypomastigote forms of T. cruzi Tulahuen strain C2C4 containing the β-galactosidase (Lac Z) gene. After 48 h the medium was removed from the wells and replaced by 100 μl fresh medium with or without a serial drug dilution of eleven 3-fold dilution steps covering a range from 100 to 0.002 μg/ml. After 96 h of incubation the plates were inspected under an inverted microscope to assure growth of the controls and sterility. Then the substrate CPRG/Nonidet (50 μl) was added to all wells. A color reaction developed within 2-6 h and could be read photometrically at 540 nm. Data were analyzed with the graphic programme Softmax Pro (Molecular Devices), which calculated IC50 values by linear regression from the sigmoidal dose inhibition curves. Benznidazole is used as control (IC50 0.5+0.2 μg/ml).

[2] = tested on: S. aureus (NCTC 6571) biofilm; test: Single species biofilm treatment, crystal violet assay; details: 100 μM peptoid, 24 hours, FIG. 17B
Method: C. albicans (NCTC 3179) was subcultured aerobically on Sabouraud agar plates and propagated in yeast peptone dextrose broth. E. coli (ATCC 29522) and S. aureus (NCTC 6571) were grown on blood agar plates and propagated in brain heart infusion (BHI) broth.
Overnight cultures of C. albicans were washed and resuspended in a modified RPMI-1640 (Sigma-Aldrich, St Louis, USA) medium to yield an inoculum of 1.0×10^6 cells/ml. Overnight cultures of S. aureus or E. coli were washed and resuspended in brain heart infusion broth (Oxoid, Basingstoke, UK) to yield an inoculum of 5.0×10^6 cells/ml. A total volume of 100 μl of each inoculum was added to microtitre plate wells (Thermo Fisher Scientific, Roskilde, Denmark). An initial biofilm was allowed to form for 4 hours. Wells were washed three times with 200 μl PBS to facilitate removal of planktonic cells and the biofilms were then treated with 100 μM of peptoids 1-4 in the appropriate broth. Plates were incubated for a further 24 hours to allow biofilm maturation. After removal of planktonic cells by washing, biofilms were quantified by the crystal violet assay or by PMA-qPCR.
Biofilm quantification by crystal violet assay Washed biofilms were fixed with 100 μl methanol for 10 minutes. Following removal of methanol, the wells were air dried and stained with crystal violet solution (Clin-Tech Ltd, Guildford, UK) for 20 minutes at room temperature. Excess stain was removed by washing, the plate was then air dried and bound crystal violet was re-solubilised in 16 μl 33% acetic acid prior to reading at 570 nm in a microtitre plate reader (Tecan GENios, Ziirich, Switzerland).

[3] = tested on: Pseudomonas aeruginosa laboratory strain PAO2
Method: (§1) Species used in MIC assays included gram-negative Escherichia coli K12 W3110, Pseudomonas aeruginosa laboratory strain PAO2 and Serratia marcescens laboratory strain and gram-positive Staphylococcus aureus NCTC 6571 and Micrococcus luteus laboratory strain.
(§2) Bacterial cultures were prepared by streaking the bacterial strains on to agar plates with an inoculation loop and incubating overnight at 37° C. A single colony was then selected and placed in 5 mL of Iso-Sensitest broth using an inoculation loop and incubated at 37° C. with shaking overnight.
(§3) MIC values were attained according to the protocol described by J. M. Andrews et al. [J. M. Andrews, J. Antimicrob. Chemother., 2001, 48, 5-16] and were conducted in 96-well microtitre plates in triplicate. 10-50 μL of each overnight culture was inoculated into 1.2 mL of Iso-Sensitest broth and grown at 37° C. with shaking. […] The inoculum was diluted ten-fold with Iso-Sensitest broth before use (to ˜10^3 cfu/spot). Peptide solutions were initially dissolved in DMSO (5 mg mL^−1) and then diluted further with Iso-Sensitest broth to achieve a concentration range of 4 mgL^−1 to 512 mgL^−1 using 2-fold serial dilutions. Samples were vortexed between dilutions where necessary to aid dissolution. 50 μL of inoculum and 50 μL of peptide solution were added to each test well to achieve a final concentration range of 2 mgL^−1 to 256 mgL^−1. Separate dilutions of ampicillin and DMSO were made up in a similar manner to act as a positive antibacterial control and a +DMSO control, respectively. 50 μL of inoculum and 50 μL of Iso-Sensitest broth were used as a positive control and 100 μL of inoculum was used as a negative control. Positive and negatives controls were conducted multiple times in parallel per plate. […] Quantitative data were attained as A650nm values using a BioTek® Synergy™ H4 Hybrid Multi-Mode Microplate Reader.

[4] = tested on: Escherichia coli K12 W3110
Method: as §1, §2, §3

[5] = tested on: Serratia marcescens laboratory strain; details: 16 h
Method: as §1, §2, §3

[6] = tested on: Staphylococcus aureus NCTC 6571
Method: as §1, §2, §3

[7] = tested on: Trypanosoma brucei rhodesiense STIB900
Method: This stock was isolated in 1982 from a human patient in Tanzania and after several mouse passages cloned and adapted to axenic culture conditions. Minimum Essential Medium (50 μl) supplemented with 25 mM HEPES, 1 g/l additional glucose, 1% MEM non-essential amino acids (100×), 0.2 mM 2-mercaptoethanol, 1 mM Na-pyruvate and 15% heat inactivated horse serum was added to each well of a 96-well microtiter plate. Serial drug dilutions of eleven 3-fold dilution steps covering a range from 100 to 0.002 μg/ml were prepared. Then 4×10^3 bloodstream forms of T. b. rhodesiense STIB 900 in 50 μl was added to each well and the plate incubated at 37° C. under a 5% CO2 atmosphere for 70 h. 10 μl Alamar Blue (resazurin, 12.5 mg in 100 ml double-distilled water) was then added to each well and incubation continued for a further 2-4 h. Then the plates were read with a Spectramax Gemini XS microplate fluorometer (Molecular Devices Cooperation, Sunnyvale, Calif., USA) using an excitation wave length of 536 nm and an emission wave length of 588 nm. The IC50 values were calculated by linear regression from the sigmoidal dose inhibition curves using SoftmaxPro software (Molecular Devices Cooperation, Sunnyvale, Calif., USA). Melarsoprol (Arsobal Sanofi-Aventis, received from WHO) is used as control.

[8] = tested on: erythrocytic stages of P. falciparum
Method: In vitro activity against erythrocytic stages of P. falciparum was determined using a 3H-hypoxanthine incorporation assay using the drug sensitive NF54 strain (Schipol airport) or the chloroquine and pyrimethamine resistant K1 strain that originate from Thailand and the standard drug chloroquine (Sigma C6628). Compounds were dissolved in DMSO at 10 mg/ml and added to parasite cultures incubated in RPMI 1640 medium without hypoxanthine, supplemented with HEPES (5.94 g/l), NaHCO3 (2.1 g/1), neomycin (100 U/ml), Albumax® (5 g/l) and washed human red cells A^+ at 2.5% haematocrit (0.3% parasitaemia). Serial drug dilutions of eleven 3-fold dilution steps covering a range from 100 to 0.002 μg/ml were prepared. The 96-well plates were incubated in a humidified atmosphere at 37° C.; 4% CO2, 3% O2, 93% N2. After 48 h 50 μl of 3H-hypoxanthine (=0.5 μCi) was added to each well of the plate. The plates were incubated for a further 24 h under the same conditions. The plates were then harvested with a Betaplate™ cell harvester (Wallac, Zurich, Switzerland), and the red blood cells transferred onto a glass fibre filter then washed with distilled water. The dried filters were inserted into a plastic foil with 10 ml of scintillation fluid, and counted in a Betaplate™ liquid scintillation counter (Wallac, Zurich, Switzerland). IC50 values were calculated from sigmoidal inhibition curves by linear regression using Microsoft Excel. Chloroquine and artemisinin are used as control.

[9] = tested on: L. donovani strain MHOM/ET/67/L82 axenic amastigotes
Method: Amastigotes of L. donovani strain MHOM/ET/67/L82 were grown in axenic culture at 37° C. in SM medium^24 at pH 5.4 supplemented with 10% heat-inactivated fetal bovine serum under an atmosphere of 5% CO2 in air. One hundred microlitres of culture medium with 10^5 amastigotes from axenic culture with or without a serial drug dilution were seeded in 96-well microtitre plates. Serial drug dilutions of eleven 3-fold dilution steps covering a range from 90 to 0.002 μg/ml were prepared. After 70 h of incubation the plates were inspected under an inverted microscope to assure growth of the controls and sterile conditions. 10 μl of Alamar Blue (12.5 mg resazurin dissolved in 100 ml distilled water) were then added to each well and the plates incubated for another 2 h. Then the plates were read with a Spectramax Gemini XS microplate fluorometer (Molecular Devices Cooperation, Sunnyvale, Calif., USA) using an excitation wave length of 536 nm and an emission wave length of 588 nm. Data were analyzed using the software Softmax Pro (Molecular Devices Cooperation, Sunnyvale, Calif., USA). Decrease of fluorescence (=inhibition) was expressed as percentage of the fluorescence of control cultures and plotted against the drug concentrations. From the sigmoidal inhibition curves the IC50 values were calculated.

[10] = second figure of cell, 37° C., 16 h, Iso-Sensitest broth

Compound: O=C(Cn1ccnc1[N+](=O)[O-])NCc1ccccc1 [Benznidazole, reference compound]
IC50 ([1]; Trypanosoma cruzi, TULAHUEN, L6, control drug, read-out: IC50 T. cruzi, control): 0.5 µg/mL

MIC P. aeruginosa ([3]; laboratory strain PAO2, 16 h): 17 µM
MIC P. aeruginosa [3, 10]: 32 mgL^−1
MIC E. coli ([4]; K12, 16 h): 17 µM
MIC E. coli [4, 10]: 32 mgL^−1
MIC S. marcescens ([5]; laboratory strain): 134 µM
MIC S. marcescens ([5]; second figure of cell, 37° C., Iso-Sensitest broth): 256 mgL^−1
MIC S. aureus ([6]; NCTC 6571, 16 h): 17 µM
MIC S. aureus [6, 10]: 32 mgL^−1
Compound: C[C@@H](c1ccccc1)N(CC(N)=O)C(=O)CN(C(=O)CN(CCCCN)C(=O)CN(C(=O)CN(C(=O)CN(CCCCN)C(=O)CN(C(=O)CN(C(=O)CN(CCCCNC(=N)N)C(=O)CN(C(=O)CN(C(=O)CNCCCCN)[C@@H](C)c1ccccc1)[C@@H](C)c1ccccc1)[C@@H](C)c1ccccc1)[C@@H](C)c1ccccc1)[C@@H](C)c1ccccc1)[C@@H](C)c1ccccc1)[C@@H](C)c1ccccc1 [Peptoid 3, (NLys-Nspe-Nspe)(NhArg-Nspe-Nspe)(NLys-Nspe-Nspe)2] (H-[Nlys][Nspe][Nspe][NhArg][Nspe][Nspe][Nlys][Nspe][Nspe][Nlys][Nspe][Nspe]-NH2; N-terminus assumed)
activity against the S. aureus biofilm [2]: strongest anti-bacterial activity

Compound: C[C@@H](c1ccccc1)N(CC(N)=O)C(=O)CN(C(=O)CN(CCN)C(=O)CN(C(=O)CN(C(=O)CN(CCNC(=N)N)C(=O)CN(C(=O)CN(C(=O)CN(CCN)C(=O)CN(C(=O)CN(C(=O)CNCCNC(=N)N)[C@@H](C)c1ccccc1)[C@@H](C)c1ccccc1)[C@@H](C)c1ccccc1)[C@@H](C)c1ccccc1)[C@@H](C)c1ccccc1)[C@@H](C)c1ccccc1)[C@@H](C)c1ccccc1 [Peptoid 6, [(NnArgNspeNspe)(NaeNspeNspe)]2] (H-[X1][Nspe][Nspe][Gly(N-2-aminoethyl)][Nspe][Nspe][X1][Nspe][Nspe][Gly(N-2-aminoethyl)][Nspe][Nspe]-NH2; N-terminus assumed)
IC50 ([7]; 70 h): 6.44 µM
active against T. brucei rhodesiense ([7]; statement in words): active
IC50 ([1]; read-out: IC50 T. cruzi): 6.58 µM
active against T. cruzi ([1]; statement in words): active
active against P. falciparum ([8]; statement in words): active
IC50 ([8]; strain (NF54 or K1) not given): 990 nM
active against L. donovani ([9]; statement in words): active
IC50 ([9]; strain MHOM/ET/67/L82 axenic amastigotes, 70 h): 9.51 µM
